Data from publication PMC6614837 (Nucleic Acids Research, 2019).

T1: RNase P holoenzyme from Thermotoga maritima (Thermotoga maritima, UniProt Q9X1H4)
T1 construct: made in house
T1 sequence (Q9X1H4 1-117): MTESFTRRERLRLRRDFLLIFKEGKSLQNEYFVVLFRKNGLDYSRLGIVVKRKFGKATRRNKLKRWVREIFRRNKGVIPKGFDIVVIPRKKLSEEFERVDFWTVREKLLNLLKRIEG

T2: RNase P protein (TmP, P protein) (Thermotoga maritima, UniProt Q9X1H4 1-117)
T2 sequence: T1 sequence (Q9X1H4 1-117)

B1: 5' RNA leader (10 nt) (ssRNA)
RNA: GGAAAAAGAU

What was measured:
[1] = biological target: T1, RNase P holoenzyme from Thermotoga maritima; test: Real-time fluorescence-based (FRET) RNase P activity assay with minihelix (Mh) substrate; assay type: biochemical; details: fluorescent Mh substrate 270 nM, holoenzyme 33 nM, 10% DMSO, 37°C, 400 mM AmOAc, 100 mM MgCl2
In short: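 Reconstituted holoenzyme (P RNA:P protein 1:1.1) at 33 nM with 270 nM minihelix labelled Alexa Fluor 488/BHQ quencher, in buffer H (pH 7.4, 400 mM AmOAc, 100 mM MgCl2), 10% DMSO, 37°C. Cleavage followed as fluorescence increase (ex 485, em 535 nm); initial velocities from linear slopes.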

[2] = biological target: Bacillus subtilis RNase P; design: method as in PMID 25249623; details: fluorescent pre-tRNA substrate ref 26; read-out: Reported IC50; cited from earlier work
[3] = biological target: T2, RNase P protein (TmP, P protein); test: BLI; 10 mM Mg2+, 5% DMSO; BLI (Octet RED96): 20 mM HEPES pH 7.4, 100 mM ammonium acetate, 10 mM MgCl2, 2.5-5% DMSO, 30 C; P protein:P RNA in 33 mM Tris, 66.6 mM HEPES, 200 mM ammonium acetate, 10 mM MgCl2, pH 7.4; details: protein: recombinant; tags: N-terminal His6 (GST fusion cleaved with TEV); single strand

Row | Molecule | IC50 [1] | IC50 [2] | Kd [3]
1 | CC(=O)Oc1cc(-c2coc3cc(OC(C)=O)c(OC(C)=O)c(OC(C)=O)c3c2=O)cc(OC(C)=O)c1OC(C)=O [iriginol hexaacetate, reference compound] | 29500 nM | 800 nM | 
2 | B1 |  |  | 35.6 nM
